pIC50: −log10 of the molar value. Entries after “also recorded” stand apart in the source; their conditions may differ. Where two headings read alike, the source gives them in different places.
What was measured:
[1] = tested on: human sarcoma cell line U2OS; experiment: Cell viability (MTT) assay, U2OS; assay type: cell-based; settings: Homo sapiens
Procedure: Human sarcoma cell lines (RD2, RH30, U2OS) were seeded in 96-well plates at a density of 3,000 cells per well. The cells were incubated at 37° C. for a period of 24 hours. Different concentrations of LY-5 (0.1-10 μM), LY-3 (0.1-20 μM), and LLL12 (0.1-10 μM) prepared as a 20 mM stock solution in sterile DMSO were added in triplicate to the plates in the presence of 10% FBS. 3-(4,5-Dimethylthiazolyl)-2, 5-diphenyltetrazoliumbromide (MTT) was added to evaluate cell viability. The absorbance was read at 595 nm. IC50 values were determined using SigmaPlot 9.0 Software (Systat Software, Inc., San Jose, Calif.).
Alternatively, cells were seeded in 96-well plates in triplicate at a density of 3,000 cells per well and given 24 hours to adhere. Cells were then treated with varying concentrations of the inhibitors in the presence of 10% FBS. The cells were incubated for 72 hours at 37° C. 25 μl of MTT dye (Sigma, #M5655) was added to each sample and incubated for 3.5 hours. After this, 100 μl of N,N-dimethylformamide (Sigma, #D4551) solubilization solution was added to each well. The absorbance at 450 nm was read the following day. Half-Maximal inhibitory concentrations (IC50) were determined using Sigma Plot 9.0 software (Systat Software Inc.).
Table 6 below lists specific compounds as well as experimentally determined STAT3 activity in a cell-based assay. The STAT3 activity was determined using the cell viability assays with human sarcoma cell line U2OS as described above. The compounds in Table 6 were synthesized with methods identical or analogous to those described herein. The compound reference numbers (“Ref. No.”) in Table 6 correspond to the compound numbers used in Table 3.

[2] = tested on: P-STAT3 induced by AZD6244; experiment: Western blot, P-STAT3 induced by MEK inhibitor AZD6244; assay type: cell-based, human; settings: 2 h
acetyl-STAT3 = experiment: Western blot, acetyl-STAT3; assay type: cell-based, human; settings: 2 h
[3] = tested on: STAT3 nuclear translocation; experiment: Immunofluorescence assay, nuclear translocation; assay type: cell-based, human; settings: SJSA; 1 or 2.5 μM; 4 h
Procedure: Cells seeded on glass slides in 6-well plate were cultured in serum-free medium for 24 hours. After the cell density reached about 80%, cells were pretreated with LY5 (1 or 2.5 μM) for 4 hours followed by IL-6 or IFN-γ (50 ng/ml), for 30 min, and were fixed with cold methanol for 15 min. After washing in phosphate-buffered saline (PBS), the slides were blocked with 5% normal goat serum and 0.3% Triton X-100 in PBS (PBST) for 1 hour. The slides were incubated with primary antibodies (1:100) against STAT3 or P-STAT1 proteins (Cell Signaling Technology) overnight at 4° C. Then, the slides were washed with PBST and incubated with goat anti-rabbit FIFC-conjugated secondary antibody (Invitrogen, 1:200). The cells were mounted with Vectashield Hardset mounting medium with DAPI (Vector Laboratories, Burlingame, Calif., USA). Photomicrographs were captured by Leica Microsystems (Bannockburn, Ill., USA).

[4] = tested on: MDA-MB-231 human breast cancer cells xenograft; experiment: Mouse model of xenograft tumor development; assay type: in vivo; settings: for tumor growth (tumor volume) / STAT3 phosphorylation in tumor tissue: 21 days; for tumor growth (tumor volume): p<0.001; for STAT3 phosphorylation in tumor tissue: Western blot
Procedure: MDA-MB-231 human breast cancer cells (5×10^6) were injected subcutaneously into the flank area of 6-week-old female athymic nude mice which were purchased from Harlan (Indianapolis, Ind., USA). There were two injection sites per animal, thus each animal provided two tumors for analysis. After tumor development, mice were divided into two treatment groups consisting of eight tumors per group (4 animals/group). The vehicle was as follows: 10% DMSO, 18% Cremophor EL, and 72% sterile 5% Dextrose solution. The same vehicle was used for oral administration (via oral gavage) or intraperitoneal (“IP”) injection. The test compound was LY-5 was at 2.5 mg/ml in the vehicle, and 100 μL was administered daily to each animal (total dose: 5 mg/kg). For both oral and IP administration, LY-5 was administered for 21 days. Tumor growth was determined by measuring length (L) and width (W) of the tumor every other day with a caliper. The tumor volume was calculated according to the formula: Tumor volume=0.5236×L×W^2.
Statistical analysis for mouse xenograft tumor data was performed by fitting a mixed model to conduct the repeated measures analysis. The repeated measures in the model were the log transformed growing rates (log 10(tumor size/day one tumor size)) measured in different days (1,3, etc. as indicated). The purpose of the model was to test whether the interaction effect between measurement time and treatment group was significant. The interaction item can be interpreted as “the difference of growing rate among the groups.” Probability (p) values less than 0.05 were considered statistically significant.

[5] = Toxicity assessment in tumor-free mice; assay type: in vivo, mouse; settings: C57BL/6 mice, IP 5 or 10 mg/kg daily, 7 days
Procedure: In order to provide preliminary data regarding potential toxicities from dosing of LY5, C57BL/6 tumor-free mice were treated with daily intraperitoneal (IP) injections of LY5 at 5 or 10 mg/kg for 7 days. […] Additionally, LY5 at a dose of 5 mg/kg via IP for 5 days inhibited growth of OS-1 tumor xenografts (90% tumor volume compared to baseline), while tumor in vehicle treated mice continued to grow (143% tumor volume compared to baseline).

Compound: NS(=O)(=O)c1cccc2c1C(=O)C=C(Nc1cccnc1)C2=O [LY-5, 5,8-dioxo-6-(pyridin-3-ylamino)-5,8-dihydronaphthalene-1-sulfonamide]
- pIC50 ([1]; Table 2, cell line not given, read-out: IC50): 6.30
- pIC50 ([1]; Table 7, read-out: IC50 U2OS): 6.28
- pIC50 ([1]; Table 8, read-out: IC50 values vs. cell lines, U2OS): 6.28
- P-STAT3 induced by AZD6244 ([2]; HCT-116, LY5+AZD6244 5 μM+10 μM): decrease in STAT3 phosphorylation
- P-STAT3 induced by AZD6244 ([2]; MIA-PaCa-2, LY5+AZD 1 μM+10 μM): decrease in STAT3 phosphorylation
- acetyl-STAT3 (acetyl-STAT3; RD2, 0-2.5 μM): decrease in STAT3 phosphorylation and acetyl-STAT3
- acetyl-STAT3 (acetyl-STAT3; UW288-1 and UW426, 0-5 μM): inhibits
- IFN-γ induced STAT3 nuclear translocation [3]: does not inhibit
- IL-6 induced STAT3 nuclear translocation [3]: inhibits
- vessel number in tumor tissue (anti-CD34 staining) ([4]; human breast cancer tumor xenograft): reduced the vessel number
- tumor growth (tumor volume) ([4]; intraperitoneal injection, 5 mg/kg daily, 5 mg/kg): significantly suppresses; also recorded: decrease in tumor growth
- tumor growth (tumor volume) ([4]; oral gavage, 5 mg/kg daily, 5 mg/kg): strongly suppressed tumor growth
- tumor growth (tumor volume) ([4]; oral gavage, 5 mg/kg daily, listed as LY5, 5 mg/kg): significantly decreased; also recorded: decreased tumor growth
- body weight and visible signs of toxicity ([4]; oral, 5 mg/kg daily): No obvious change in body weight or visible signs of toxicity
- STAT3 phosphorylation in tumor tissue ([4]; oral, 5 mg/kg): no apparent phosphorylated STAT3
- STAT3 phosphorylation in tumor tissue ([4]; oral, 5 mg/kg, listed as LY5, 5 mg/kg): noticeably lower than vehicle group; also recorded: decrease in STAT3 phosphorylation
- erythrocyte, leukocyte and platelet parameters [5]: no differences
- organ weights as a percentage of body weight [5]: did not vary significantly
- histologic evaluation of organs ([5]; n=2): no abnormalities
